Data: US20240109896A1, “FGFR KINASE INHIBITOR AND USE THEREOF” (YA THERAPEUTICS INC, priority 2021, published 2024)
Where two headings read alike, the source gives them in different places.

Experiments:
[1] = biological target: FGFR2 (Homo sapiens, UniProt P21802); assay: In vitro activity inhibition test for kinase FGFR2; assay type: biochemical; conditions: kinase assay, 25° C.; read-out: Inhibition of separase IC50 (nM) FGFR2
[2] = biological target: FGFR3 (Homo sapiens, UniProt P22607); assay: In vitro activity inhibition test for kinase FGFR3;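 also: FGFR3 kinase activity read by Caliper mobility shift assay, compounds run as 10-point 4-fold dilution series, final DMSO 0.5%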
FGFR3, sequence (P22607 23-806): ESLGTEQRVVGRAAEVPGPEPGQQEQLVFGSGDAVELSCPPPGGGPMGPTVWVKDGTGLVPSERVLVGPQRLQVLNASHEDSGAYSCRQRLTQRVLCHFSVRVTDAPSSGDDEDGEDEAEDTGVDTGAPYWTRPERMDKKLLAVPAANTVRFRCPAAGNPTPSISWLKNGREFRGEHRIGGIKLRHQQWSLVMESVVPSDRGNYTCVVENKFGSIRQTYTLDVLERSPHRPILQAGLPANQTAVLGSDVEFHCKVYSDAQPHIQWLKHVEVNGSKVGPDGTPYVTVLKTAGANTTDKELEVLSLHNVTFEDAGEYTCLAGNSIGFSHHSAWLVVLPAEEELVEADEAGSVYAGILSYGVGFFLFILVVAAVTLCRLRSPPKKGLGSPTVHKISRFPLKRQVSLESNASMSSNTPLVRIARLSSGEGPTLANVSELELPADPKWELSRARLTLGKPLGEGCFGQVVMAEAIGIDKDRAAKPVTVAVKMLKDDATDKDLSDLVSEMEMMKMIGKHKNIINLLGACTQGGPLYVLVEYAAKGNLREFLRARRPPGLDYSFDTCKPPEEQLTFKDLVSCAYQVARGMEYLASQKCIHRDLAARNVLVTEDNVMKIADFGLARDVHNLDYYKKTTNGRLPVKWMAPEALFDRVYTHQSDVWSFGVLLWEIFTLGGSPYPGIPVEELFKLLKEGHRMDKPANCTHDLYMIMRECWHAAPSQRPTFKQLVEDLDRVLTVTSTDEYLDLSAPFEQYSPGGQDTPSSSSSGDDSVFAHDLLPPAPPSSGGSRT
Method: (§3) In Vitro Activity Inhibition Test for Kinases FGFR1, FGFR2, FGFR3 and FGFR4
(§4) The activity of FGFR1, FGFR2, FGFR3 and FGFR4 protein kinases was determined by Caliper mobility shift assay. Perform a 4-fold gradient dilution from a working concentration of 0.2 mM in DMSO, diluting 10 concentrations. Add 2 μL of compound to 78 μL of 1× compound buffer. There were 10 points each for the negative control and the positive control. Shake the board on the rocker for 20 min. […] The final concentration of DMSO was 0.5%.

[3] = biological target: FGFR4 (Homo sapiens, UniProt P22455); assay: In vitro activity inhibition test for kinase FGFR4;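 also: caliper mobility shift assay of FGFR4 kinase activity, compounds tested as 10-point 4-fold dilution series with 0.5% DMSO final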
FGFR4, sequence (P22455 22-802): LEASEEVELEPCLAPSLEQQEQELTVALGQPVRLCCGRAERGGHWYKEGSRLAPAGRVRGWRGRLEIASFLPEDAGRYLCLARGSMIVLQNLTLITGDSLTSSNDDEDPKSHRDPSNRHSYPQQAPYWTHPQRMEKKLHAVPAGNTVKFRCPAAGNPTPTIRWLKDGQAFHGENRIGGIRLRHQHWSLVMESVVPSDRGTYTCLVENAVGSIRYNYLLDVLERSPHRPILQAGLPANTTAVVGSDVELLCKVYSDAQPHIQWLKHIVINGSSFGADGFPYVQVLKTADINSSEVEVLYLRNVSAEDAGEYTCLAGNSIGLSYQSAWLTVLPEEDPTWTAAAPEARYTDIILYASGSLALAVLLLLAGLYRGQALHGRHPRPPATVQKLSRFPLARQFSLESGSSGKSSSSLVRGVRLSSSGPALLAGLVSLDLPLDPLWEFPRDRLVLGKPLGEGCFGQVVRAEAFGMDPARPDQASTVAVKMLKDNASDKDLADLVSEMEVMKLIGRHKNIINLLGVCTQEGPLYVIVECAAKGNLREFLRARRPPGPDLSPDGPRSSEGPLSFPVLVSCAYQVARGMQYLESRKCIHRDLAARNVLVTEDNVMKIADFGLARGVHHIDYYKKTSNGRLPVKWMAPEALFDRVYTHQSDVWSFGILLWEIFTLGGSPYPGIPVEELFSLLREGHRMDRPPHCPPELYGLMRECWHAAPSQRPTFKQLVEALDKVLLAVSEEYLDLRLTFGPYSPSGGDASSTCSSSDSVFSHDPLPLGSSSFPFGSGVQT
Method: as §3, §4

[4] = system: Hep3B cells; assay: Human hepatoma cell Hep3B survival test (CellTiter-Glo); assay type: cell-based; conditions: treated 72 hours, read-out: inhibitory activity on Hep3B cell proliferation IC50
Method: The Hep3B cell line of human liver cancer is derived from ATCC. Cells are supplemented with McCoy's 5A medium and additionally added fetal bovine serum (IOFBS). Cells are kept in the medium at 37° C., humidity at 95%, and carbon dioxide at 500. Hep3B cells were seeded in 96-well plates at a density of 3500 cells per well with a cell suspension volume of 90 μL per well and cultured at 37° C. in a cell culture incubator containing 500 CO2. […] The cells were then placed in a 37° C. incubator and treated with compounds for 72 hours.

[5] = biological target: FGFR1 (Homo sapiens, UniProt P11362); assay: In vitro activity inhibition test for kinase FGFR1
FGFR1, sequence (P11362 22-822): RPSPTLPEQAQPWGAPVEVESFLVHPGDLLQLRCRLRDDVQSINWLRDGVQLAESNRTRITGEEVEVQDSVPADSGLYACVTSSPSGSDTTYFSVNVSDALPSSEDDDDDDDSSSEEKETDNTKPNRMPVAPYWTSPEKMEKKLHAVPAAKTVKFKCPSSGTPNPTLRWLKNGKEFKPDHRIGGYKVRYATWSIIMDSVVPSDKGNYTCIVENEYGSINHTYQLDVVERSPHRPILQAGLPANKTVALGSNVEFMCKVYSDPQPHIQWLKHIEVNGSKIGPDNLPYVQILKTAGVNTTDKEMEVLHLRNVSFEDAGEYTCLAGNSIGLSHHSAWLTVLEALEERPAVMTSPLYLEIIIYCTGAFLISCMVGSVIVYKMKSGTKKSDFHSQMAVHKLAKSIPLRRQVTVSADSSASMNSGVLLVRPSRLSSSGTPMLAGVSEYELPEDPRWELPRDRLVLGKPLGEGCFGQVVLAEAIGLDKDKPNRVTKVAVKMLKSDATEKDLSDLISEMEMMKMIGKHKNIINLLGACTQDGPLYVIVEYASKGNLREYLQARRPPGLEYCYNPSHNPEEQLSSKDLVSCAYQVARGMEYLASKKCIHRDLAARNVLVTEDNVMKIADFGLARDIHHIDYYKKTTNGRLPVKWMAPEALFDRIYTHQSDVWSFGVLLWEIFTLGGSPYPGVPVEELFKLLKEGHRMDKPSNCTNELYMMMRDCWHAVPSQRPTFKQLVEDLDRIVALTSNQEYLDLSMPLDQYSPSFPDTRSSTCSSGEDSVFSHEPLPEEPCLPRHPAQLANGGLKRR
Method: as §3, §4

[6] = system: human bladder cancer cells (RT4); assay: Proliferation inhibition of human bladder cancer cells RT4 (CellTiter-Glo); assay type: cell-based; conditions: RT4, 3 days
Method: (§1) Using the CellTiter-Glo<TM>Live Cell Assay Kit, The inhibitory effect of the test compound on the proliferation of human gastric cancer cells (SNU-16) and FGFR3 high expression and FGFR3 fusion of FGFR3-TACC3 fused human bladder cancer cells (RT4) was determined. Among them, RT4 medium is added with fetal bovine serum and McCoy's 5A medium with a final concentration of 10%.
(§2) Test steps: SNU-16 and RT4 cells that have reached 80% cell confluency were digested by trypsin, centrifuged and re-suspended for counting, and 3500 and 6000 cells/mL of SNU-16 and RT4 cell suspensions were prepared with medium, respectively. Add a 96-well cell culture plate (90 μL/well) and place in a cell culture incubator containing 5% CO2 at 37° C. […] The diluted compound stock solution was further diluted with SNU-16 and RT4 medium and the diluted mixture was transferred to the corresponding cell plates, respectively. […] Mix and centrifuge and then place in a cell culture incubator containing 5% CO2 for 3 days at 37° C. Take out the 96-well cell culture plate and add CellTiterGlo (CTG, Chemiluminescent Cell Viability Assay) reagent (100 L/well. Mix and centrifuge, and then incubate for 10 min at room temperature. After gentle shaking, the absorbance at 450 nm wavelength was determined on the SpectraMax M5 Reader, and the absorbance at 650 nm was used as a reference (i.e., 450 nm absorbance −650 nm absorbance) to calculate the suppression.

[7] = biological target: T1, hERG potassium channel (Homo sapiens, UniProt Q12809); assay: Determination of potassium channel blockade of hERG (whole-cell patch clamp, Qpatch); assay type: cell-based; conditions: HEK293 cells stably expressing hERG, tail current, 24° C.
T1 construct: host or cells: HEK293
T1 sequence (Q12809 whole entry): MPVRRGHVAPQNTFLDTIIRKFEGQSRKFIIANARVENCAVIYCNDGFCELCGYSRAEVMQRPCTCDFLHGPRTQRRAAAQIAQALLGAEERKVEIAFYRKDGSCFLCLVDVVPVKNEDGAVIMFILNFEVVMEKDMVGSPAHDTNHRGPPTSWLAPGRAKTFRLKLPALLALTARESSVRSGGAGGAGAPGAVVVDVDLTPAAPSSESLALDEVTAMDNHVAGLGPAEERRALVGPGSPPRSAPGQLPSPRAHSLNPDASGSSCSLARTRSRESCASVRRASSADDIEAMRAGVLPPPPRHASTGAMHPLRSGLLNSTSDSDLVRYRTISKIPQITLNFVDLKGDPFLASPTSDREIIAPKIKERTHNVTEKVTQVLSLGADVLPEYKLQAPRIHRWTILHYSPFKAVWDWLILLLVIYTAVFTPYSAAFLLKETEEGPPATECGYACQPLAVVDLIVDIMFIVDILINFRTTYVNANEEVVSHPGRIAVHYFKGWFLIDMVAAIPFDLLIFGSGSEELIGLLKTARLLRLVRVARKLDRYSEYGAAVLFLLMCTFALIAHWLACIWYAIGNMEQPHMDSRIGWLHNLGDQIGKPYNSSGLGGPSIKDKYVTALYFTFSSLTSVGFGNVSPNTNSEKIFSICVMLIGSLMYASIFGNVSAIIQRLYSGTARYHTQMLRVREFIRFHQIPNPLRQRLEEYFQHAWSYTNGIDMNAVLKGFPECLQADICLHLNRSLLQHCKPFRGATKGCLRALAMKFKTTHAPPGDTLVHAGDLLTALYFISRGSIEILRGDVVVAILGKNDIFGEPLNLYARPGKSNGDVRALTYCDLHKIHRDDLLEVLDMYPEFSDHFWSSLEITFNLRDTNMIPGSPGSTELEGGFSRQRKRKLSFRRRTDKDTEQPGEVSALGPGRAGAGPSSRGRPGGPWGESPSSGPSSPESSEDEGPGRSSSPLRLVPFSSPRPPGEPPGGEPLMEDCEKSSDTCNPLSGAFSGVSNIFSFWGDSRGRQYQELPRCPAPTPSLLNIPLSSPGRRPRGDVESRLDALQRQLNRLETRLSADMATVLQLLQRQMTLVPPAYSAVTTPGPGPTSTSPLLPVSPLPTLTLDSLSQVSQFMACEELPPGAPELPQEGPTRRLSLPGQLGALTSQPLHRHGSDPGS
Method: Example 59: Determination of Potassium Channel Blockade of hERG
The experimental methods are in follows:
extracellular fluid: 140 mM NaCl, 3.5 mM KCl, 1 mM MgCl2, 2 mM CaCl2, 10 mM D-glucose, 10 mM HEPES, 1.25 mM NaH2PO4, pH=7.40
ISE Internal Solution: 20 mM KCl, 115 mM K-aspartate, 1 mM MgCl2, 5 mM EGTA, 10 mM HEPES, 2 mM Na2-ATP, pH=7.2
Cell culture: HEK293 cell line with stable expression of hERG potassium channel was used, and hERG potassium channel cells were purchased from Creacell (catalog number: A-0320). It was cultured in DMEM medium containing 10 fetal bovine serum and 0.8 mg/mL G418 at 37° C. and a carbon dioxide concentration of 5%. Take out the old medium and wash once with PBS, then add 2 mL of TrypLE™ Express solution and incubate at 37° C. for about 1 min. When the cell detaches from the bottom of the dish, add approximately 5 mL of complete medium pre-warmed at 37° C. Gently pipette the cell suspension with a pipette to detach the aggregated cells. […]
Each drug concentration is set for two administrations for at least 5 minutes. The tested compound and the compound-free external fluid acts on the cells sequentially from low to high concentration, and each cell uses the current detected in the compound-free exo-liquid as its own control group, and the detection of the two cells is repeated independently. […]

[8] = system: human gastric cancer cells (SNU-16); assay: Proliferation inhibition of human gastric cancer cells SNU-16 (CellTiter-Glo); assay type: cell-based; conditions: 72 h, SNU-16, 3 days
Method: as §1, §2

FGFR2, sequence (P21802 22-821): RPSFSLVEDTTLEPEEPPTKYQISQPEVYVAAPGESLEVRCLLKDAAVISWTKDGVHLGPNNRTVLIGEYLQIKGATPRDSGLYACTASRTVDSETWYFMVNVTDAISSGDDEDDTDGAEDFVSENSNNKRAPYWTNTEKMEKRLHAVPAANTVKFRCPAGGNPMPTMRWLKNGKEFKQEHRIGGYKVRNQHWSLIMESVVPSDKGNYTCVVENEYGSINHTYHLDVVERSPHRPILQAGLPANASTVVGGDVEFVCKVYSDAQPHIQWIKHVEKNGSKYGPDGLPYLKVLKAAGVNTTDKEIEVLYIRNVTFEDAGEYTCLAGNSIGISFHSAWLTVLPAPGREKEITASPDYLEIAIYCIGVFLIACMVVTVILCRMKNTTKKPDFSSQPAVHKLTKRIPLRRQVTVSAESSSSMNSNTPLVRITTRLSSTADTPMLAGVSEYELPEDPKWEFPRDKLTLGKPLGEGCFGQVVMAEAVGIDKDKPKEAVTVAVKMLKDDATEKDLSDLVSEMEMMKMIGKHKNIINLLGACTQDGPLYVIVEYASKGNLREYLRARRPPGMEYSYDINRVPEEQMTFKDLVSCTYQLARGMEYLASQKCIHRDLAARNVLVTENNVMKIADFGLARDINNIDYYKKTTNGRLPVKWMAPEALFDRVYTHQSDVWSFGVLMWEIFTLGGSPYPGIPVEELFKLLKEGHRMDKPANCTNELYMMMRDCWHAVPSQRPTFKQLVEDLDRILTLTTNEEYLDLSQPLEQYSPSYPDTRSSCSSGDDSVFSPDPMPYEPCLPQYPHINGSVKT

Row | Molecule | IC50 [1] [nM] | IC50 [2] [nM] | IC50 [3] [nM] | IC50 [5] [nM] | IC50 ([6]; Homo sapiens, RT-4, 72 h) [nM] | IC50 [8] [nM] | IC50 [6] [nM] | IC50 ([4]; Homo sapiens) [nM] | inhibition effect on the hERG channel [7] | IC50 [4] [nM]
1 | COc1cc(OC)cc(N(CCNC(C)C)c2ccc3ncc(-c4cnn(C)c4)nc3c2)c1 [Erdafinib] |  |  |  |  |  |  | 1.8 |  |  | 
2 | CCN1C(=O)N(c2c(F)c(OC)cc(OC)c2F)Cc2cnc3[nH]c(CN4CCOCC4)cc3c21 [Pemigatinib, reference compound] |  |  |  |  | 6 | 0.249 |  | 10 to 100 |  | 
3 | (S)-4-amino-1-(1-(but-2-ynoyl)pyrrolidin-3-yl)-3-((2,6-difluoro-3,5-dimethoxyphenyl)ethynyl)-1,6-dihydro-7H-pyrazolo[3,4-d]pyridazin-7-one [Compound 34] |  |  |  |  |  |  |  |  |  | < 10
4 | C=CC(=O)N1CCC2(CC(Nc3nc(N)c(C(N)=O)c(C#Cc4cc(OC)cc(OC)c4)n3)C2)C1 (centres unmarked) [Compound 8, 2-((6-acryloyl-6-azaspiro[3.4]octan-2-yl)amino)-4-amino-6-((3,5-dimethoxyphenyl)ethynyl)pyrimidine-5-carboxamide] | 10 to 100 | 10 to 100 | 100 to 500 | 100 to 500 |  |  |  |  |  | 
5 | C=CC(=O)N1CC[C@H](n2cc(-c3cc4ccccc4n3C)c3c(N)n[nH]c(=O)c32)C1 [Compound 40, (S)-1-(1-acryloylpyrrolidin-3-yl)-4-amino-3-(1-methyl-1H-indol-2-yl)-1,6-dihydro-7H-pyrrolo[2,3-d]pyridazin-7-one] | < 10 | < 10 | < 10 | < 10 |  |  |  |  |  | 
6 | CCN1CCN(c2ccc(Nc3cc(N(C)C(=O)Nc4c(Cl)c(OC)cc(OC)c4Cl)ncn3)cc2)CC1 [BGJ398, infigratinib, reference compound] |  |  |  |  | 11.8 | 0.572 |  | 10 to 100 |  | 

The next lines start with results.

Row | IC50 [1] [nM] | IC50 [2] [nM] | IC50 [3] [nM] | IC50 [5] [nM] | IC50 ([6]; Homo sapiens, RT-4, 72 h) [nM] | IC50 [8] [nM] | IC50 [6] [nM] | Molecule | IC50 ([4]; Homo sapiens) [nM] | inhibition effect on the hERG channel [7] | IC50 [4] [nM]
7 | < 10 | < 10 | < 10 | < 10 |  |  |  | C=CC(=O)N1CCC[C@H](n2nc(C#Cc3cc(OC)cc(OC)c3)c3c(N)n[nH]c(=O)c32)C1 [Compound 24, (S)-1-(1-acryloylpiperidin-3-yl)-4-amino-3-((3,5-dimethoxyphenyl)ethynyl)-1,6-dihydro-7H-pyrazolo[3,4-d]pyridazin-7-one] | < 10 |  | 
8 | < 10 | < 10 | < 10 | < 10 | 3.4 | < 0.015 |  | C=CC(=O)N1CC[C@H](n2cc(-c3cc4cc(C)cc(OC)c4s3)c3c(N)n[nH]c(=O)c32)C1 [Compound 38, (S)-1-(1-acryloylpyrrolidin-3-yl)-4-amino-3-(7-methoxy-5-methylbenzo[b]thiophen-2-yl)-1,6-dihydro-7H-pyrrolo[2,3-d]pyridazin-7-one] | < 10 | moderate inhibitory effect | 
9 | < 10 | < 10 | < 10 | < 10 |  |  |  | C=CC(=O)N1CC[C@H](n2nc(C#Cc3c(Cl)c(OC)cc(OC)c3Cl)c3c(N)n[nH]c(=O)c32)C1 [Compound 30, (S)-1-(1-acryloylpyrrolidin-3-yl)-4-amino-3-((2,6-dichloro-3,5-dimethoxyphenyl)ethynyl)-1,6-dihydro-7H-pyrazolo[3,4-d]pyridazin-7-one] | < 10 |  | 
10 | < 10 | < 10 | < 10 | < 10 |  |  |  | C=CC(=O)N1CC[C@H](n2nc(-c3cc4cc(C)cc(OC)c4s3)c3c(N)n[nH]c(=O)c32)C1 [Compound 36, (S)-1-(1-acryloylpyrrolidin-3-yl)-4-amino-3-(7-methoxy-5-methylbenzo[b]thiophen-2-yl)-1,6-dihydro-7H-pyrazolo[3,4-d]pyridazin-7-one] | < 10 |  | 
11 | < 10 | < 10 | < 10 | < 10 |  |  |  | C=CC(=O)N1CCC[C@H](n2cc(C#Cc3cc(OC)cc(OC)c3)c3c(N)n[nH]c(=O)c32)C1 [Compound 20, (S)-1-(1-acryloylpiperidin-3-yl)-4-amino-3-((3,5-dimethoxyphenyl)ethynyl)-1,6-dihydro-7H-pyrrolo[2,3-d]pyridazin-7-one] | < 10 |  | 
12 | < 10 | < 10 | < 10 | < 10 |  |  |  | C=CC(=O)N1CC[C@H](n2cc(C#Cc3cc(OC)cc(OC)c3)c3c(N)n[nH]c(=O)c32)C1 [Compound 22, (S)-1-(1-acryloylpyrrolidin-3-yl)-4-amino-3-((3,5-dimethoxyphenyl)ethynyl)-1,6-dihydro-7H-pyrrolo[2,3-d]pyridazin-7-one] | < 10 |  | 
13 | < 10 | < 10 | < 10 | < 10 |  |  |  | CC#CC(=O)N1CC[C@H](n2cc(C#Cc3cc(OC)cc(OC)c3)c3c(N)n[nH]c(=O)c32)C1 [Compound 23, (S)-4-amino-1-(1-(but-2-ynoyl)pyrrolidin-3-yl)-3-((3,5-dimethoxyphenyl)ethynyl)-1,6-dihydro-7H-pyrrolo[2,3-d]pyridazin-7-one] |  |  | 
14 | < 10 | < 10 | < 10 | < 10 | 1.3 | 0.025 |  | C=CC(=O)N1CC[C@H](n2nc(C#Cc3c(F)c(OC)cc(OC)c3F)c3c(N)n[nH]c(=O)c32)C1 [Compound 28, (S)-1-(1-acryloylpyrrolidin-3-yl)-4-amino-3-((2,6-difluoro-3,5-dimethoxyphenyl)ethynyl)-1,6-dihydro-7H-pyrazolo[3,4-d]pyridazin-7-one] |  | weak or no inhibition effect | 
15 | < 10 | < 10 | < 10 | < 10 |  |  |  | C=CC(=O)N1CC[C@H](n2nc(C#Cc3cc(OC)cc(OC)c3)c3c(N)n[nH]c(=O)c32)C1 [Compound 26, (S)-1-(1-acryloylpyrrolidin-3-yl)-4-amino-3-((3,5-dimethoxyphenyl)ethynyl)-1,6-dihydro-7H-pyrazolo[3,4-d]pyridazin-7-one] | < 10 |  | 
